According to patent publication US4791200A, “2-substituted-4-aryl-substituted thiazoles” (Ortho Pharmaceutical Corporation, priority 1987, dated 1988):
Where two headings read alike, the source gives them in different places.

What was measured:
[1] = test system: acid output (gastric secretion); assay: Gastric Secretion (pylorus ligation, modified Shay); format: in vivo, male Charles River Sprague Dawley derived rats; conditions: i.d. or s.c., 4 hours after ligation; for response vs control in vivo at 40 mg/kg: at 40 mpK
Procedure: The inhibitory activity of the compounds on acid output was tested using pylorus ligation in a modification of the procedure of Shay, H. et al., Gastroenterology 26, 906 (1954). Basically, male Charles River Sprague Dawley derived rats weighing 150-300 grams were deprived of food but not water for 18-24 hours prior to use. Water was withheld during the experiment, however. The rats were weighed, anesthetized with ether and the pylorus ligated according to the method of Shay et al., supra. Treatment or vehicle control was then administered intraduodenally (i.d.) or subcutaneously (s.c.). Rats were housed two/cage and sacrificed with CO2 four hours after ligation. The stomachs were removed, rinsed, and contents emptied into a graduated centrifuge tube. The tubes were centrifuged, the volume of gastric juice recorded, and any samples obviously contaminated by feces, food or blood were eliminated. A 1 ml aliquot of gastric juice was titrated with 0.1N NaOH to a pH of 7.0-7.4. The volume of gastric juice secreted, the acid concentration, and the product of the volume times the concentration, i.e., the total amount of acid secreted, were measured.

[2] = test system: parietal cells; assay: Isolated Parietal Cell Assay (14C-aminopyrine accumulation, histamine or dibutyryl cAMP stimulated); format: cell-based, rabbit; conditions: Oryctolagus cuniculus
Procedure: The isolated parietal cell assay was conducted using the procedures of Batzri, S. et al., Biochemica et Biophysica Acta 508, 328 (1978) and Soll, A. H. Am. J. Physiol. 238, G366 (1980). Basically, parietal cells were isolated from the fundic mucosa of rabbit stomachs by a four-stage collagenase digestion process. The supernatant fractions from the last two stages of this process contain the individual parietal cells. This cell suspension was centrifuged and reconstituted in a modified Hank's buffer to contain 1-2×10^6 cells/ml. […] This accumulation was stimulated by histamine and was blocked by H2 antagonists. The cells were incubated with 0.4-0.5×10^6 cpm ^14 C-AP, with various concentrations of histamine as a stimulant, 1×10^-5 M isobutylmethylxanthine, and the test compound added in a 20 μl volume of buffer or DMSO. The flasks were incubated in a shaking water bath at 37° C. for 20 minutes. Two aliquots were then taken from each flask and cell pellets were collected by centrifugation. The pellets were solubilized with Protosol (New England Nuclear) and radioactivity determined by liquid scintillation spectrometry. Data is presented as the IC50 vhist, the concentration of compound required to inhibit ^14 C-AP accumulation in the histamine stimulated parietal cell by 50%.
When dibutyryl cAMP was used to stimulate the cells instead of histamine, a similar inhibition of ^14 C-AP accumulation was measured and the data are presented as the IC50 vcAMP, the concentration required to inhibit ^14 C-AP accumulation in the cAMP stimulated parietal cell by 50%.

[3] = molecular target: T1, parietal cell H^+ K^+ ATPase (Oryctolagus cuniculus, UniProt P27112); assay: Inhibition of Parietal Cell H^+ K^+ ATPase; format: biochemical, New Zealand white rabbits; conditions: read-out: % Inhibition at Concentration; for inhibition at 100 µM: at 10^-4 M
T1 construct: determined in fundic mucosa from New Zealand white rabbits which were homogenized; from tissue; host or cells: fundic mucosa of New Zealand white rabbits, homogenized; membrane protein
T1 sequence (P27112 2-1035 limits assumed): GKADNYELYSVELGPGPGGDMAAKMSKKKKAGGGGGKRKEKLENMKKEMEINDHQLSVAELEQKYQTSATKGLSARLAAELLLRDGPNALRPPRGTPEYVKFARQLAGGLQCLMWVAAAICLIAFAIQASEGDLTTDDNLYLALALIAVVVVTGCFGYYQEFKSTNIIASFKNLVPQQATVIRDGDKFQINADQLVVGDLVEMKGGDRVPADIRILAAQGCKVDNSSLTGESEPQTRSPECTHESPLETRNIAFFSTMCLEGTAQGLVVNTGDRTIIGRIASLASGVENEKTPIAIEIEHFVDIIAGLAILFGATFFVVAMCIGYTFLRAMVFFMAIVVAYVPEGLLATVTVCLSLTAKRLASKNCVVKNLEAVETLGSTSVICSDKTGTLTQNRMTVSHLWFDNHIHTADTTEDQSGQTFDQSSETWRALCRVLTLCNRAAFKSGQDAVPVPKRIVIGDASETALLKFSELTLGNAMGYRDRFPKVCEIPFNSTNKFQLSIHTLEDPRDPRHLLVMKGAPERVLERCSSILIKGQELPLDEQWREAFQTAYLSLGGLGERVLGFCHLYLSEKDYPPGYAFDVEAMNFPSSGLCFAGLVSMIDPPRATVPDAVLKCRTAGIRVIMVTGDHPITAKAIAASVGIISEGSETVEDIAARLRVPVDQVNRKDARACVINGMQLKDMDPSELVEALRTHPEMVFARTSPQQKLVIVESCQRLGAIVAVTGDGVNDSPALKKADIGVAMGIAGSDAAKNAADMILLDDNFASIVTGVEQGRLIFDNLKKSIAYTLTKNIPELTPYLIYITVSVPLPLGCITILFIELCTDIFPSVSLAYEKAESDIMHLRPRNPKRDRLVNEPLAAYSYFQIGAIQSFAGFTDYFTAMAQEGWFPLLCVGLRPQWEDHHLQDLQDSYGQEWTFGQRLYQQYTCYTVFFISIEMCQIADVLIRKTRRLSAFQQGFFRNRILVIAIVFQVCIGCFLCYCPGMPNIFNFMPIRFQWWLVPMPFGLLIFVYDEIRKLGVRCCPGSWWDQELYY
T1 sequence (P18597 whole entry partner): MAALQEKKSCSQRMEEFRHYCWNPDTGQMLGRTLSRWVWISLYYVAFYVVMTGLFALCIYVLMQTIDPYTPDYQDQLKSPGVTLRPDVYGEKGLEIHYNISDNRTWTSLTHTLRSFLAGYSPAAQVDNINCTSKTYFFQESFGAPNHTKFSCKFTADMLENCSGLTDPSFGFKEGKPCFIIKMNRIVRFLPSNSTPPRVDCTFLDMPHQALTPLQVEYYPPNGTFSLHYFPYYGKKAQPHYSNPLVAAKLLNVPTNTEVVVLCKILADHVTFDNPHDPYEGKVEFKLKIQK
Procedure: The activity was measured in a 1 ml incubation volume containing 50 mM Tris pH 7.4, 2 mM MgCl2, 2 mM Na2 ATP, with or without 20 mM KCl and vehicle control (dimethylsulfoxide) or test compound added in a 0.02 ml volume. Typically, 20-50 μg membrane protein was added and the tubes were preincubated with test compound for 10 minutes at 37° C. Substrate, Na2 ATP, was then added and the tubes were incubated for another 15 minutes at 37° C. The reaction was stopped by the addition of 1 ml 14% trichloroacetic acid and the samples were centrifuged at 2,000 ×g for 10 minutes. The amount of inorganic phosphate present in an aliquot of supernatant was determined. H^+ K^+ ATPase activity was determined after correcting for the basal (Mg^++ only) enzyme activity present in the membrane preparation.

[4] = Rattus norvegicus, read-out: % Acid Secreted at mpK
[5] = 20 min, histamine stimulated, 37° C., 20 minutes, read-out: IC50 vhist (inhibition of 14C-AP accumulation in the histamine stimulated parietal cell)
[6] = dibutyryl cAMP stimulated, read-out: IC50 vcAMP (inhibition of 14C-AP accumulation in the cAMP stimulated parietal cell)

Structure (SMILES)	IC50 [2, 5]	IC50 [2, 6]	inhibition at 100 µM [3]	response vs control in vivo at 40 mg/kg [1, 4]	% Acid Secreted at mpK ([1]; at 20 mpK)	also measured
CCCCN(CCCC)CCCOc1ccc(-c2csc(C)n2)cc1 [Example 2, 4-(4-Dibutylaminopropoxyphenyl)-2-methylthiazole]	1500 nM	8400 nM	22%		8%	
CCCCN(CCCC)CCCCOc1ccc(-c2csc(-c3ccccc3)n2)cc1 [Example 13]	130 nM	120 nM	64%	90%	56%	
c1ccc(-c2nc(-c3ccc(OCCCCn4ccnc4)cc3)cs2)cc1 [Example 14]	820 nM	310 nM	0%	31%		
CCCCN(CCCC)CCCCCOc1ccc(-c2csc(-c3ccccc3)n2)cc1 [Example 15]	490 nM	860 nM	58%		54%	
CCCCN(CCCC)CCCOc1ccc(-c2csc(-c3ccc(Cl)cc3)n2)cc1 [Example 16]	2100 nM	1800 nM	55%		40%	
CCCCN(CCCC)CCCOc1ccc(-c2csc(-c3ccc(C)cc3)n2)cc1 [Example 19, 4-(4-Dibutylaminopropoxyphenyl)-2-(4-methylphenyl)thiazole]	1500 nM	3000 nM			41%	inhibition at 24 µM ([3]; at 24 μM): 50%
CCCCN(CCCC)CCCOc1ccc(-c2csc(-c3ccc(C(F)(F)F)cc3)n2)cc1 [Example 20, 4-(4-Dibutylaminopropoxyphenyl)-2-(4-trifluoromethylphenyl)thiazole]	2900 nM	2000 nM		40%		inhibition at 10.6 µM ([3]; at 10.6 μM): 50%
CCCCN(CCCC)CCCOc1ccc(-c2csc(-c3cccnc3)n2)cc1 [Example 21, 4-(4-Dibutylaminopropoxyphenyl)-2-(3-pyridinyl)thiazole]	1650 nM	880 nM			19%	inhibition at 20 µM ([3]; at 20 μM): 50%
CCCCN(CCCC)CCCOc1c(Cl)cc(-c2csc(-c3ccccc3)n2)cc1Cl [Example 22, 4-[3,5-Dichloro-4-(dibutylaminopropoxy)phenyl]-2-phenylthiazole]	580 nM	240 nM	29%		41%	

Further lines, with some results ahead:

IC50 [2, 5]	IC50 [2, 6]	inhibition at 100 µM [3]	Structure (SMILES)	response vs control in vivo at 40 mg/kg [1, 4]	% Acid Secreted at mpK ([1]; at 20 mpK)	also measured
450 nM	420 nM	47%	CCCCN(CCCC)CCCOc1ccc(-c2csc(-c3ccccc3)n2)cc1 [Example 1, 4-(4-Dibutylaminopropoxyphenyl)-2-phenylthiazole]	97%	75%	response vs control in vivo at 17 mg/kg ([1]; Rattus norvegicus, at 17.0 mpK, read-out: % Acid Secreted at mpK): 50%
270 nM	230 nM	65%	CCCCN(CCCC)CCCOc1ccc(-c2nc(-c3ccccc3)sc2C)cc1 [Example 3, 4-(4-Dibutylaminopropoxyphenyl)-5-methyl-2-phenylthiazole]		36%	
120 nM	90 nM		CCN(CC)CCCOc1ccc(-c2csc(-c3ccccc3)n2)cc1 [Example 4, 4-(4-Diethylaminopropoxyphenyl)-2-phenylthiazole]	82%		inhibition at 47 µM ([3]; at 47 μM): 50%
230 nM	180 nM	60%	CCCN(CCC)CCCOc1ccc(-c2csc(-c3ccccc3)n2)cc1 [Example 5, 4-(4-Dipropylaminopropoxyphenyl)-2-phenylthiazole]	94%		
180 nM	120 nM		CN1CCN(CCCOc2ccc(-c3csc(-c4ccccc4)n3)cc2)CC1 [Example 6, 4-[4-(4-Methylpiperazol-1-yl)propoxyphenyl]-2-phenylthiazole]	18%		inhibition at 44 µM ([3]; at 44 μM): 50%
480 nM	340 nM	28%	COc1ccccc1N1CCN(CCCOc2ccc(-c3csc(-c4ccccc4)n3)cc2)CC1 [Example 7, 4-[4-[4-(2-Methoxyphenyl)piperazol-1-yl]propoxyphenyl]-2-phenylthiazole]			
110 nM	50 nM		c1ccc(-c2nc(-c3ccc(OCCCN4CCCCC4)cc3)cs2)cc1 [Example 8, 4-[4-(3-Piperidino)propoxyphenyl]-2-phenylthiazole]	92%	46%	% Acid Secreted at mpK ([1]; at 10 mpK): 25%; inhibition at 34 µM ([3]; at 34 μM): 50%
390 nM	< 10000 nM		c1ccc(-c2nc(-c3ccc(OCCCN4CCCC4)cc3)cs2)cc1 [Example 9, 4-[4-(3-Pyrrolidino)propoxyphenyl]-2-phenylthiazole]		36%	inhibition at 32 µM ([3]; at 32 μM): 50%
80 nM	20 nM		c1ccc(-c2nc(-c3ccc(OCCCn4ccnc4)cc3)cs2)cc1 [Example 10, 4-[4-(1H-Imidazol-1-yl)propoxyphenyl]-2-phenylthiazole]		91%	response vs control in vivo at 5 mg/kg ([1]; Rattus norvegicus, at 5 mpK, read-out: % Acid Secreted at mpK): 33%; response vs control in vivo at 5.7 mg/kg ([1]; Rattus norvegicus, at 5.7 mpK, read-out: % Acid Secreted at mpK): 50%; % Acid Secreted at mpK ([1]; at 10 mpK): 78%; inhibition at 18 µM ([3]; at 18 μM): 50%
370 nM	210 nM	39%	CN(CCCOc1ccc(-c2csc(-c3ccccc3)n2)cc1)Cc1ccccc1 [Example 11, 4-(4-Benzylmethylaminopropoxyphenyl)-2-phenylthiazole]		48%	
310 nM	350 nM	44%	CCCCN(CCCC)CCOc1ccc(-c2csc(-c3ccccc3)n2)cc1 [Example 12, 4-(4-Dibutylaminoethoxyphenyl)-2-phenylthiazole]		41%	
480 nM	230 nM	33%	CCCCN(CCCC)CCCOc1ccc(-c2csc(-c3ccc(OC)cc3)n2)cc1 [Example 17, 4-(4-Dibutylaminopropoxyphenyl)-2-(4-methoxyphenyl)thiazole]		4%	
260 nM	540 nM	30%	CCCCN(CCCC)CCCOc1ccc(-c2csc(-c3cc(OC)cc(OC)c3)n2)cc1 [Example 18, 4-(4-Dibutylaminopropoxyphenyl)-2-(3,5-dimethoxyphenyl)thiazole]		17%	
400 nM	460 nM		Clc1cc(-c2csc(-c3ccccc3)n2)cc(Cl)c1OCCCn1ccnc1 [Example 23, 4-[3,5-Dichloro-4-(1H-imidazol-1-yl)propoxyphenyl]-2-phenylthiazole]		33%	inhibition at 2.4 µM ([3]; at 2.4 μM): 50%
